Measurements as given in US6451800B1, “Phenylpiperazine derivatives as integrin αvβ3 antagonists” (Meiji Seika Kaisha, Ltd., priority 1998, dated 2002).
Values belong to the compound of their own block, whether it stands above or below them.

What was measured:
GP IIb/IIIa = GP IIb/IIIa (Homo sapiens, UniProt P05106+P08514); test: GP IIb/IIIa antagonistic activity (method of Pharmacological Test 2 in WO 94/21599); type: binding
Procedure: (§1) GP IIb/IIIa Antagonistic Activity and Human Platelet Aggregation Inhibitory Activity
GP IIb/IIIa antagonistic activity was measured for the compounds according to the present invention. The measurement of the GP IIb/IIIa antagonistic activity was carried out according to the method described in Pharmacological Test 2 in WO 94/21599.

[1] = target: T1, integrin αvβ3 (vitronectin receptor purified from the human placenta) (Homo sapiens, UniProt P05106+P06756); test: αvβ3 binding assay (vitronectin-vitronectin receptor binding assay); conditions: for IC50: vitronectin receptor from human placenta, read-out: IC50, inhibition of binding between vitronectin and vitronectin receptor (αvβ3 binding inhibitory activity)
T1 construct: a vitronectin receptor (protein content: 118 μg/ml) purified from the human placenta; from tissue; host or cells: human placenta
T1 sequence (P06756 31-889 limits assumed): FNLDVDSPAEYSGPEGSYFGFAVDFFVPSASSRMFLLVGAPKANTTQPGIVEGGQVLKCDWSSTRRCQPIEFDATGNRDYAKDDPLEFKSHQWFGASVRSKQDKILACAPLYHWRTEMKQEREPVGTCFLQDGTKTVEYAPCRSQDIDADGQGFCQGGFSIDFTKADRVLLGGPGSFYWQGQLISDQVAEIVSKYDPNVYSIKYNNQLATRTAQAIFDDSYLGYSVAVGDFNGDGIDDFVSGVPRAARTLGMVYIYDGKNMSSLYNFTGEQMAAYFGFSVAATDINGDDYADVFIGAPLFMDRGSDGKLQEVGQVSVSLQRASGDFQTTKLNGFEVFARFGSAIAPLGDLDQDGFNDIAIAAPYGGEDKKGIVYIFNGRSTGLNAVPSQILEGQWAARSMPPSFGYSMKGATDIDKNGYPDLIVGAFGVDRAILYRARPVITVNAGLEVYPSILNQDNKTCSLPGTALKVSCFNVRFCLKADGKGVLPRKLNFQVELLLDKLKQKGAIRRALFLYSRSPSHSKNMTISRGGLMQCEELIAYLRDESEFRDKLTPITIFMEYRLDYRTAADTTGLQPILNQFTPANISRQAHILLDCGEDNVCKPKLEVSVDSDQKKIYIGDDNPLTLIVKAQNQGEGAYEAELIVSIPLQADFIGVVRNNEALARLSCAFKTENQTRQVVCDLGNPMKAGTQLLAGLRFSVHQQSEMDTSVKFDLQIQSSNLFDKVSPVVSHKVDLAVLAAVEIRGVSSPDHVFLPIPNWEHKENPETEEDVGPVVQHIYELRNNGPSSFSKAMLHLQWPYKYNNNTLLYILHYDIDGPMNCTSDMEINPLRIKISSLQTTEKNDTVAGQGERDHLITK
T1 sequence (P06756 891-1048 partner limits assumed): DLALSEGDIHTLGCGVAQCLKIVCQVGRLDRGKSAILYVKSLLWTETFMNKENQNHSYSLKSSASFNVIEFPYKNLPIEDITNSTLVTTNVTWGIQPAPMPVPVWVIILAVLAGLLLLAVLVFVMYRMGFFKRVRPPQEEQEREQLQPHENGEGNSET
T1 sequence (P05106 27-788): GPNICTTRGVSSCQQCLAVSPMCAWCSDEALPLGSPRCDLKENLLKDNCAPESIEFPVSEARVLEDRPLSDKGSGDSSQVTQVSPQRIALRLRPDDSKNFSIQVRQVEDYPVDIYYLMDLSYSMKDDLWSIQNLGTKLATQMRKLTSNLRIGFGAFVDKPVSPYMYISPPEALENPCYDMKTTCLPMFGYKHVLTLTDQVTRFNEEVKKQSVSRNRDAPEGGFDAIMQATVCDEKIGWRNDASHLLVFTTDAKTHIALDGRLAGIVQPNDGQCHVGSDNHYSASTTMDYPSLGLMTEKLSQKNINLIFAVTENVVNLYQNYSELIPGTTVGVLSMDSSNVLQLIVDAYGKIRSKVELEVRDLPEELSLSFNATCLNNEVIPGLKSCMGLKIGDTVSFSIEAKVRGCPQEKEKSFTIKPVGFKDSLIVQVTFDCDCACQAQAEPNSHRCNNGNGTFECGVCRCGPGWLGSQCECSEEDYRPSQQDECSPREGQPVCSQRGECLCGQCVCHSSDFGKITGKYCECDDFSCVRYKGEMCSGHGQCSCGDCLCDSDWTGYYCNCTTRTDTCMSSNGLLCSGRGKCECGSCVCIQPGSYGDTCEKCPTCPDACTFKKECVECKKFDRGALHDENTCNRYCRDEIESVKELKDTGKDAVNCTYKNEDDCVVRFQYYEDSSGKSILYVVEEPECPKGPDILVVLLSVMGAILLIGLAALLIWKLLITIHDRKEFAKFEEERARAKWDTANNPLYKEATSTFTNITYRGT
Procedure: Integrin αvβ3 antagonistic activity was measured for the compounds according to the present invention in a vitronectin-vitronectin receptor binding assay system in accordance with the method of Kouns et al. (W. C. Kouns, D. Kirchhofer, P. Hadvary, A. Edenhofer, T. Weller, G. Pfenninger, H. R. Baumgartner, L. K. Jennings and B. Steiner, Blood, 8, 2539-2547 (1992)).
Specifically, a vitronectin receptor (protein content: 118 μg/ml) purified from the human placenta in accordance with the method of Pytela et al. (R. Pytela, M. D. Pierschbacher, S. Argraves, S. Suzuki, and E. Ruoslahti, Method in Enzymology, 144, 475-489 (1987)) was diluted 50 times with TBS (20 mM Tris-HCl, 150 mM NaCl, 1 mM CaCl2, 1 mM MgCl2, pH 7.4), and distributed and coated on wells (50 μl/well) of a plate (Maxisorp, Nunc, 96 well Immuno Plate). The plate was then allowed to stand at 4° C. for 1 day, washed twice with TBS (200 μl/well), and then subjected to blocking with TBS (150 μl/well) containing 1% bovine serum albumin (SIGMA) at 4° C. overnight. After washing twice with TBS (200 μl/well), 50 μl of vitronectin (CALBIOCHEM) adjusted to 0.2 μg/ml by the addition of TBS (TBS-Tween) containing 0.01% Tween-20 was mixed with 50 μl of each test compound adjusted to each concentration in wells, and a reaction was allowed to proceed at room temperature for 4 hr. After the completion of the reaction, the wells were washed five times with TBS-Tween. A solution prepared by diluting anti-vitronectin rabbit antiserum (CHEMICON) 500 times with TBS-Tween was added as a primary antibody in an amount of 50 μl per well, and a reaction was allowed to proceed at room temperature for 1.5 hr. After washing five times with 200 μl/well of TBS-Tween, a peroxidase (POD)-labeled anti-rabbit IgG antibody solution (CAPPEL) diluted 500 times with TBS-Tween was added as a secondary antibody in an amount of 50 μl/well, and a reaction was allowed to proceed at room temperature for 1.5 hr. After washing five times with TBS-Tween (200 μl /well), ABTS (2,2′-azino-bis(3-ethylbenzthiazoline-6-sulfonic acid), SIGMA) was adjusted to 1 mg/ml by the addition of a ten-fold diluted POD-buffer (ZYMED), and added in an amount of 50 μl/well, and a reaction was allowed to proceed for 5 to 10 min. A 0.1 M citric acid buffer (pH 4.3) containing 0.05% NaN3 was added in an amount of 50 μl/well to stop the reaction, followed by the measurement of the absorbance at 415 nm with a microplate reader (MTP 32, Corona Electric) (reference: 675 nm). The total binding was defined as the absorbance after a reaction using 50 μl of TBS-Tween instead of the test compound, and the non-specific binding (100% inhibition) was defined as the absorbance after a reaction using 50 μl of TBS-Tween containing 2×10^−3 M RGDS. The inhibition was calculated by the following equation: [formula]
(§2) IC50 was determined from a primary regression line of the logarithm of each concentration of the test compound and the logarithm of (100−inhibition)/inhibition.

[2] = target: T2, integrin α5β1 (fibronectin receptor purified from the human placenta) (Homo sapiens, UniProt P05556+P08648); test: α5β1 binding assay (fibronectin-fibronectin receptor binding assay); conditions: read-out: IC50, integrin α5β1 antagonistic activity (fibronectin-fibronectin receptor binding)
T2 construct: a fibronectin receptor (protein content: 52.1 μg/ml) purified from the human placenta; from tissue; host or cells: human placenta
T2 sequence (P08648 42-894 limits assumed): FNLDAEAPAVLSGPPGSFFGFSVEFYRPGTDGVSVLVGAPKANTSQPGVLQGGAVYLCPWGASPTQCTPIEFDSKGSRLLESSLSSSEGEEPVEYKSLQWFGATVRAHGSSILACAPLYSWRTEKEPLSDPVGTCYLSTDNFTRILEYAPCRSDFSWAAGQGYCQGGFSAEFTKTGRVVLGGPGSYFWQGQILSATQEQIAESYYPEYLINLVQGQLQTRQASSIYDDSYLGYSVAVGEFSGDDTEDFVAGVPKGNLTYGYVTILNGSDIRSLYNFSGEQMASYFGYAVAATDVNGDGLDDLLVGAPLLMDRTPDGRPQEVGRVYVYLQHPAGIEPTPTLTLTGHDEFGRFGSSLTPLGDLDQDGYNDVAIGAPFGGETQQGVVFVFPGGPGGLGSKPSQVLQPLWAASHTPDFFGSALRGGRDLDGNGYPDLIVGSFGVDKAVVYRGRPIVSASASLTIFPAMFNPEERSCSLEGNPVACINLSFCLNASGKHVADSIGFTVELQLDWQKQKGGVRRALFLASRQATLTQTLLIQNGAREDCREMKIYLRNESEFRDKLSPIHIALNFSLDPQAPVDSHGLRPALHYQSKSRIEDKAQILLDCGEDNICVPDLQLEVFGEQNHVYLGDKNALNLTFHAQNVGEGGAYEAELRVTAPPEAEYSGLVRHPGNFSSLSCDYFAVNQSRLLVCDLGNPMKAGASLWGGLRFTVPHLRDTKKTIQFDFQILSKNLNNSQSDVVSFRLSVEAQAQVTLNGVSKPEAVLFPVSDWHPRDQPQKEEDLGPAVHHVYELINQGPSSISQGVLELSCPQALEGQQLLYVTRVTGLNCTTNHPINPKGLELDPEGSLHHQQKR
T2 sequence (P08648 895-1049 partner limits assumed): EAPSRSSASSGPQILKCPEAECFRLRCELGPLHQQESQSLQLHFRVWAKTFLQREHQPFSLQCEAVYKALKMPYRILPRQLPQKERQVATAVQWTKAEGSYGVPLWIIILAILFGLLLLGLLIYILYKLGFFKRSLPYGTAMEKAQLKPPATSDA
T2 sequence (P05556 21-798): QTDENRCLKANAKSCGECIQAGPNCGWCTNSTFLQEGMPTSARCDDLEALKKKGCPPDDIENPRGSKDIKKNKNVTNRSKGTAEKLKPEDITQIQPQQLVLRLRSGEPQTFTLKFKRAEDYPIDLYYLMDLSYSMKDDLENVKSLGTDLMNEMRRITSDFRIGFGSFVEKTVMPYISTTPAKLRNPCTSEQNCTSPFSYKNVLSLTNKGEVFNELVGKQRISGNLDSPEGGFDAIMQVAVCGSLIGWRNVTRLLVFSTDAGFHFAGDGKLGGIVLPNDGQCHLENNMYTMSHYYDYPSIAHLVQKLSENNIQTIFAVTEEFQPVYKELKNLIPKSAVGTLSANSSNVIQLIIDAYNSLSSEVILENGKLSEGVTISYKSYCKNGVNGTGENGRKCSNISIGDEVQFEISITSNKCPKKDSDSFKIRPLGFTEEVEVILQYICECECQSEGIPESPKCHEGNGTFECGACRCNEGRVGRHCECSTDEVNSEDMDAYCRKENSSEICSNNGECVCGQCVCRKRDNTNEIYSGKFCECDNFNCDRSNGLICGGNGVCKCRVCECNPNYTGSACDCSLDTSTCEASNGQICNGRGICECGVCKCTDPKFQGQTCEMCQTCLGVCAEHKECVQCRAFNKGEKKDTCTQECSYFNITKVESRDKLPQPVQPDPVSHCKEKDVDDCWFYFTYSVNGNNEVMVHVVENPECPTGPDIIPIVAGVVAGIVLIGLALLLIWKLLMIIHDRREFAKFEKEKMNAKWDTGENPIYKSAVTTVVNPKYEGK
Procedure: The plate was then allowed to stand at 4° C. for one day, washed twice with TBS (200 μl/well), and then subjected to blocking with TBS (150 μl/well) containing 3% skim milk (DIFCO) at 4° C. overnight. […] After the completion of the reaction, the wells were washed five times with TBS-Tween. A solution prepared by diluting a peroxidase-labeled fibronectin antibody (CAPPEL) 500 times with TBS-Tween was added in an amount of 50 μl per well, and a reaction was allowed to proceed at room temperature for 1.5 hr. After washing five times with TBS-Tween (200 μl/well), ABTS (SIGMA) adjusted to 1 mg/ml by the addition of a ten-fold diluted POD-buffer (ZYMED) was added in an amount of 50 μl/well, and a reaction was allowed to proceed for 5 to 10 min. A 0.1 M citric acid buffer (pH 4.3) containing 0.05% NaN3 was added in an amount of 50 μl/well to stop the reaction, followed by the measurement of the absorbance at 415 nm with a microplate reader (MTP 32, Corona Electric) (reference: 675 nm). […] The inhibition was calculated by the following equation: [formula]
as §2

Oral absorption in rats = type: in vivo; conditions: data not shown
Source text: Therefore, any of the compounds, wherein R^9 represents an alkyl group or a hydrogen atom, can be used in the treatment of the above diseases.

[3] = tested on: human platelet aggregation; test: Human platelet aggregation inhibitory activity (method of Pharmacological Test 1 in WO 94/21599); type: cell-based; conditions: for IC50: read-out: IC50, human platelet aggregation inhibition
Procedure: as §1
Human platelet aggregation inhibitory activity was measured for the compounds according to the present invention. The measurement of the human platelet aggregation activity was carried out according to the method described in Pharmacological Test 1 in WO 94/21599.

GP IIb/IIIa, sequence (P08514 32-887 limits assumed): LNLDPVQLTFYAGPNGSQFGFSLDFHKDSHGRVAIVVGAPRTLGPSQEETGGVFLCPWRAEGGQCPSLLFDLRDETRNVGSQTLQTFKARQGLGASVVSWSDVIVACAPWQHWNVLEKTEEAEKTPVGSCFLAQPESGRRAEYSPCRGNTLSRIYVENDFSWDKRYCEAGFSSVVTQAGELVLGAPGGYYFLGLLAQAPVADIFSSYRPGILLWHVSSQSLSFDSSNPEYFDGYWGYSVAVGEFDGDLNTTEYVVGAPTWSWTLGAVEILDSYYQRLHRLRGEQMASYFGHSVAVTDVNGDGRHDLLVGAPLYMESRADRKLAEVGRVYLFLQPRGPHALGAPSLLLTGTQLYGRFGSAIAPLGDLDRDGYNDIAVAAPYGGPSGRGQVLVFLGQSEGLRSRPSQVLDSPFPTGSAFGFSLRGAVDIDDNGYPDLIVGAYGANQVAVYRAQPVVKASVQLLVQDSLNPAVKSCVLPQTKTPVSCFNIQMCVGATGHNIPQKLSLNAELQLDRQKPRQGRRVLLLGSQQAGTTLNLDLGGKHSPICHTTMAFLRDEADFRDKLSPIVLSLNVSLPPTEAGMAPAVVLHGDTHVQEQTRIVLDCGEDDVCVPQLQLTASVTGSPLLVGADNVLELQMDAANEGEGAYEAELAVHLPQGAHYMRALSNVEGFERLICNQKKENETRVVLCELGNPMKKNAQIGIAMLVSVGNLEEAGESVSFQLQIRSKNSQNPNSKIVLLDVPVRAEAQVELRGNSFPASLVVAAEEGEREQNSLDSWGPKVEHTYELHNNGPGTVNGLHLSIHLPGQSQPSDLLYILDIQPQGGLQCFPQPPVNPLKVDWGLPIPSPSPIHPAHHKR
GP IIb/IIIa, sequence (P08514 891-1039 partner limits assumed): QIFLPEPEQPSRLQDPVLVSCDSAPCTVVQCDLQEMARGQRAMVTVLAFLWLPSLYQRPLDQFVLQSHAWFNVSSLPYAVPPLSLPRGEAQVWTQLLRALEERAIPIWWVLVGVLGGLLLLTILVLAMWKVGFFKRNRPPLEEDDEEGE
GP IIb/IIIa, sequence (P05106 27-788): as the sequence (P05106 27-788) above

Structure (SMILES): Cc1cc(C)c(S(=O)(=O)N[C@@H](CNC(=O)c2ccc(N3CCN(c4ncccn4)CC3)c(F)c2)C(=O)O)c(C)c1 [Example 82, 3-[3-Fluoro-4-{4-(pyrimidin-2-yl)-piperazin-1-yl}-benzoylamino]-(2S)-(2,4,6-trimethyl-benzenesulfonylamino)-propionic Acid]
GP IIb/IIIa antagonistic activity (in words) (GP IIb/IIIa): extremely high GP IIb/IIIa antagonistic activity

Structure (SMILES): C[C@H]1CN(c2ccc(C(=O)NC[C@H](NS(=O)(=O)c3ccccc3)C(=O)O)cc2F)CCN1C1=NCCCN1 [Example 72, (2S)-Benzenesulfonylamino-3-[3-fluoro-4-{(3S)-methyl-4-(1,4,5,6-tetrahydropyrimidin-2-yl)-piperazin-1-yl}-benzoylamino]-propionic Acid]
GP IIb/IIIa antagonistic activity (in words) (GP IIb/IIIa): extremely high GP IIb/IIIa antagonistic activity
IC50 (GP IIb/IIIa): ≤ 0.2 nM
integrin αvβ3 antagonistic activity (in words) [1]: high integrin αvβ3 antagonistic activity

Structure (SMILES): O=C(NC[C@H](NS(=O)(=O)c1ccccc1)C(=O)O)c1ccc(N2CCCN(c3ncccn3)CC2)cc1 [Example 5, (2S)-Benzenesulfonylamino-3-[4-{4-(pyrimidin-2-yl) -[1,4]diazepan-1-yl}-benzoylamino]-propionic acid]
oral absorption (Oral absorption in rats): excellent oral absorption

Structure (SMILES): CC1CN(c2ccc(C(=O)NC[C@H](NS(=O)(=O)c3ccccc3)C(=O)O)cc2)CCN1C1=NCCCN1 (stereo partly drawn) [Example 9, (2S)-Benzenesulfonylamino-3-[4-{3-methyl-4-(1,4,5,6-tetrahydropyrimidin-2-yl)-piperazin-1-yl}-benzoylamino]-propionic acid]
human platelet aggregation inhibition (in words) [3]: very strongly inhibited human platelet aggregation
IC50 [3]: 50 nM

Structure (SMILES): N=C(N)N1CCN(c2ccc(C(=O)NC[C@H](NS(=O)(=O)c3ccccc3)C(=O)O)cc2)CC1 [Example 34, (2S)-Benzenesulfonylamino-3-[4-{4-(amidino)-piperazin-1-yl}-benzoylamino]-propionic Acid]
human platelet aggregation inhibition (in words) [3]: very strongly inhibited human platelet aggregation
IC50 [3]: 38 nM

Structure (SMILES): O=C(NC[C@H](NS(=O)(=O)c1ccccc1)C(=O)O)c1ccc(N2CCCN(C3=NCCCN3)CC2)cc1 [Example 6, (2S)-Benzenesulfonylamino-3-[4-{4-(1,4,5,6-tetrahydropyrimidin-2-yl)-[1,4]diazepan-1-yl}-benzoylamino]-propionic acid]
human platelet aggregation inhibition (in words) [3]: very strongly inhibited human platelet aggregation
IC50 [3]: 50 nM

Structure (SMILES): C[C@@H]1CN(c2ccc(C(=O)NC[C@H](NS(=O)(=O)c3ccccc3)C(=O)O)cc2)CCN1C1=NCCCN1 [Example 12, (2S)-Benzenesulfonylamino-3-[4-{(3R)-methyl-4-(1,4,5,6-tetrahydropyrimidin-2-yl)-piperazin-1-yl}-benzoylamino]-propionic acid]
human platelet aggregation inhibition (in words) [3]: very strongly inhibited human platelet aggregation

Continued, in another order:

IC50 (GP IIb/IIIa): ≤ 0.2 nM
IC50 [1]: 3.5 nM
IC50 [2]: 63 µM
Structure (SMILES): O=C(NC[C@H](NS(=O)(=O)c1ccccc1)C(=O)O)c1ccc(N2CCN(C3=NCCCN3)CC2)c(Cl)c1 [Example 59, (2S)-Benzenesulfonylamino-3-[3-chloro-4-{4-(1,4,5,6-tetrahydropyrimidin-2-yl)-piperazin-1-yl}-benzoylamino]-propionic Acid]

IC50 (GP IIb/IIIa): ≤ 0.2 nM
Structure (SMILES): O=C(NC[C@H](NS(=O)(=O)c1ccccc1)C(=O)O)c1ccc(N2CCN(C3=NCCCN3)CC2)cc1F [Example 56, (2S)-Benzenesulfonylamino-3-[2-fluoro-4-{4-(1,4,5,6-tetrahydropyrimidin-2-yl)-piperazin-1-yl}-benzoylamino]-propionic Acid]

IC50 [1]: 5.8 nM
IC50 [2]: 13 µM
Structure (SMILES): Cc1cc(C)c(S(=O)(=O)N[C@@H](CNC(=O)c2ccc(N3CCN(C4=NCCCN4)CC3)c(F)c2)C(=O)O)c(C)c1 [Example 83, 3-[3-Fluoro-4-{4-(1,4,5,6-tetrahydropyrimidin-2-yl)-piperazin-1-yl}-benzoylamino]-(2S)-(2,4,6-trimethyl-benzenesulfonylamino)-propionic Acid]

IC50 (GP IIb/IIIa): ≤ 0.2 nM
Structure (SMILES): O=C(NC[C@H](NS(=O)(=O)c1ccccc1)C(=O)O)c1ccc(N2CCN(C3=NCCCN3)CC2)cc1Cl [Example 62, (2S)-Benzenesulfonylamino-3-[2-chloro-4-{4-(1,4,5,6-tetrahydropyrimidin-2-yl)-piperazin-1-yl}-benzoylamino]-propionic Acid]

integrin αvβ3 antagonistic activity (in words) [1]: high integrin αvβ3 antagonistic activity
IC50 [1]: 6.3 nM
Structure (SMILES): Nc1c(N2CCN(C3=NCCCN3)CC2)ccc(C(=O)NC[C@H](NS(=O)(=O)c2ccccc2)C(=O)O)c1Cl [Example 65, 3-[3-Amino-2-chloro-4-{4-(1,4,5,6-tetrahydropyrimidin-2-yl)-piperazin-1-yl}-benzoylamino]-(2S)-benzenesulfonylamino-propionic Acid]
GP IIb/IIIa antagonistic activity (in words) (GP IIb/IIIa): extremely high GP IIb/IIIa antagonistic activity
